Measurements published in patent US6455550B1, “N-alkanoylphenylalanine derivatives” (Hoffmann-La Roche Inc., priority 1997, dated 2002).
Where two headings read alike, the source gives them in different places.

Experiments:
[1] = molecular target: T1, cell-surface VLA-4 (α4β1 integrin) on Ramos cells binding to immobilized VCAM-1 (Homo sapiens, UniProt P05556+P13612); experiment: Ramos (VLA-4)/VCAM-1 Cell-Based Screening Assay (cell adhesion); conditions: Calcein-AM labeled Ramos cells, VCAM-1 coated plates, 45 min at room temperature
T1 construct: Ramos cells bearing cell-surface VLA-4; endogenous in cells; host or cells: Ramos cells (VLA-4); VCAM-1 purified from CHO cell culture media

[2] = molecular target: T2, VLA-4 (α4β1 integrin) binding to immobilized VCAM-1 (Homo sapiens, UniProt P05556+P13612); experiment: VLA-4/VCAM-1 Screening Assay (solid-phase, dual antibody ELISA); conditions: Ramos cell-derived VLA-4, recombinant human VCAM-1 coated plates, 2 hr at 37° C.; read-out: IC50
T2 construct: followed by 10 μl of Ramos cell-derived VLA-4; endogenous in cells; host or cells: Ramos cells (VLA-4 preparation derived from the cells)
Method in brief: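 Recombinant human VCAM-1 is coated onto plates and Ramos cell-derived VLA-4 is added with compound (final DMSO 5%) in Tris buffer pH 7.4 with 1 mM MnCl2 and 1 mg/mL BSA, 2 hr at 37° C. Bound VLA-4 is detected by anti-β1 antibody, HRP anti-mouse IgG and K-Blue colorimetry. Results are % inhibition of total binding.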

[3] = IC50 in Ramos Cell Based Assay (nM)

T1 sequence (P13612 34-1032): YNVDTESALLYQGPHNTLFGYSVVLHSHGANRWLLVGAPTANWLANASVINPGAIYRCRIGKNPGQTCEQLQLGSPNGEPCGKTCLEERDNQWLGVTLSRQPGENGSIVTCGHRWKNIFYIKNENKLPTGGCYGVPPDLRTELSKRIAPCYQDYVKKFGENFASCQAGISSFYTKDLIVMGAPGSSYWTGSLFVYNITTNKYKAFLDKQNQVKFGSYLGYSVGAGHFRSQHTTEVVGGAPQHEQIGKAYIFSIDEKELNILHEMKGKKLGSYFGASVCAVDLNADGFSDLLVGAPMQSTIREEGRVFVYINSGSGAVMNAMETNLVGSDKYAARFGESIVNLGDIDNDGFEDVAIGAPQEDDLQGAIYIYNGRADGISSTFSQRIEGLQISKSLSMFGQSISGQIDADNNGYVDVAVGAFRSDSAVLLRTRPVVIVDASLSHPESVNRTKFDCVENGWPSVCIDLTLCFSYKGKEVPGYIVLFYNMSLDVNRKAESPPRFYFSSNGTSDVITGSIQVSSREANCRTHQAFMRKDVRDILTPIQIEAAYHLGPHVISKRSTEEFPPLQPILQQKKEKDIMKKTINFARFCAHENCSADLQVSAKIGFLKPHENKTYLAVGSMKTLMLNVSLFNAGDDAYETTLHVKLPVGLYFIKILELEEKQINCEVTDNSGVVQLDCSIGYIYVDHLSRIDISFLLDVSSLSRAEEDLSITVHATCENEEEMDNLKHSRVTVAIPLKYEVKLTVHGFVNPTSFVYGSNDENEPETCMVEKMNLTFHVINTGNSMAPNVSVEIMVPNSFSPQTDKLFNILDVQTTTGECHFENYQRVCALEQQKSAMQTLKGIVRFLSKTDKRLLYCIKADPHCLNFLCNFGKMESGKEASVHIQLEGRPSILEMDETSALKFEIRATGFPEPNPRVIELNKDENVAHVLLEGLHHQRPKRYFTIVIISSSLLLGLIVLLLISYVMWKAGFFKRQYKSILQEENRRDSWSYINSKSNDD
T1 sequence (P05556 21-798): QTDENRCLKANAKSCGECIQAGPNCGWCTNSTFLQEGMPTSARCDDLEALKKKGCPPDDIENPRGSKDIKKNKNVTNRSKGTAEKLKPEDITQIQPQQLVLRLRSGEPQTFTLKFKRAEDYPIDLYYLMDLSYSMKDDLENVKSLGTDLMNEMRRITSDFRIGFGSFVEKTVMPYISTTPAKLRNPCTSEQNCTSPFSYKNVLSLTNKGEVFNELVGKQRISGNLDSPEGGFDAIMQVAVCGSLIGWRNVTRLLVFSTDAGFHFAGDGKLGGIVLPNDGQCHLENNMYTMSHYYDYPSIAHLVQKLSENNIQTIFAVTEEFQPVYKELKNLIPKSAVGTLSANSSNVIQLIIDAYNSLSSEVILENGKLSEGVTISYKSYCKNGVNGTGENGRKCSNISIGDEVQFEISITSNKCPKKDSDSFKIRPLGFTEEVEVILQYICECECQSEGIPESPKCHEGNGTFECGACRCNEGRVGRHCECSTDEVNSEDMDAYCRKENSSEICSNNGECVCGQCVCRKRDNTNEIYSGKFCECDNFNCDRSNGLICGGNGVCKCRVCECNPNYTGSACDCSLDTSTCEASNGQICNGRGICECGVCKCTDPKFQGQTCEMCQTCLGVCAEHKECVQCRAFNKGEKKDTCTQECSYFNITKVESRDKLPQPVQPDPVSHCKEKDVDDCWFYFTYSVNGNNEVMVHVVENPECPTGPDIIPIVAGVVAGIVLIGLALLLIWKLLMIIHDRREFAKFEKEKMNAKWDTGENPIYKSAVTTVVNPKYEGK
T2 sequence (P13612 34-1032): as the sequence (P13612 34-1032) above
T2 sequence (P05556 21-798): as the sequence (P05556 21-798) above

Question: For `COCCC1(C(=O)N[C@@H](Cc2ccc(NC(=O)c3c(Cl)cccc3Cl)cc2)C(=O)O)CCCC1` [Example 398, 4-[[(2,6-Dichlorophenyl)carbonyl]amino]-N-[[1-(2-methoxyethyl)cyclopentyl]carbonyl]-L-phenylalanine], which melting point is on record?
Answer: Its melting point is 136 to 140 °C.

Question: With `CS(=O)(=O)CCC1(C(=O)N[C@@H](Cc2ccc(NC(=O)c3c(Cl)cccc3Cl)cc2)C(=O)O)CCCC1` [Example 358] as the compound, how does the IC50 [1, 3] read?
Answer: The IC50 was 75 nM.

Question: And the melting point?
Answer: The melting point was 184 to 187 °C.

Question: With `COCCC1(C(=O)N[C@@H](Cc2ccc(NC(=O)c3cc(C#N)ccc3Cl)cc2)C(=O)OC)CCCC1` [Example 362, 4-[(2-Chloro-5-cyanophenylcarbonyl)amino]-N-[[1-(2-methoxyethyl)cyclopentyl]carbonyl]-L-phenylalanine Methyl Ester] as the compound, how does the melting point read?
Answer: The melting point was 172 to 175 °C.

Question: Which melting point does the source give for `COCCC1(C(=O)N[C@@H](Cc2ccc(NC(=O)c3c(Cl)cccc3Cl)cc2)C(=O)OC)CCCC1` [Example 397, 4-[[(2,6-Dichlorophenyl)carbonyl]amino]-N-[[1-(2-methoxyethyl)cyclopentyl]carbonyl]-L-phenylalanine Methyl Ester] here?
Answer: The melting point was 85 to 87 °C.

Question: For `C[S+]([O-])CCC1(C(=O)N[C@@H](Cc2ccc(NC(=O)c3c(Cl)cccc3Cl)cc2)C(=O)O)CCCC1` (stereo partly shown) [Example 357], which IC50 [1, 3] is on record?
Answer: The IC50 was 25 nM.

Question: What about the melting point of the same compound?
Answer: Its melting point is 255 to 258 °C.

Question: Which IC50 [2] does the source give for `COCCC1(C(=O)N[C@@H](Cc2ccc(N3C(=O)c4ccc(C#N)cc4C3=O)cc2)C(=O)O)CCCC1` [Example 371, 4-(5-Cyano-1,3-dioxo-2H-isoindol-2-yl)-N-[[1-(2-methoxyethyl)cyclopentyl]carbonyl]-L-phenylalanine] here?
Answer: The IC50 was 1.65 nM.

Question: And the melting point?
Answer: The melting point was 143 to 146 °C.

Question: With `COc1ccc(CC2(C(=O)N[C@@H](Cc3ccc(NC(=O)c4c(Cl)cccc4Cl)cc3)C(=O)O)CCCCC2)cc1` [Example 47, 4-[[(2,6-Dichlorophenyl)carbonyl]amino]-N-[[1-(4-methoxyphenylmethyl)cyclohexyl]carbonyl]-L-phenylalanine] as the compound, how does the melting point read?
Answer: The melting point was 136 to 140 °C.

Question: With `COCCC1(C(=O)N[C@@H](Cc2ccc(NC(=O)c3cc(C#N)ccc3Cl)cc2)C(=O)O)CCCC1` [Example 363, 4-[(2-Chloro-5-cyanophenylcarbonyl)amino]-N-[[1-(2-methoxyethyl)cyclopentyl]carbonyl]-L-phenylalanine] as the compound, how does the IC50 [2] read?
Answer: Its IC50 is 0.64 nM.

Question: And the IC50 ([1]; read-out: IC50 in Ramos Cell Based Assay)?
Answer: Its IC50 is 11 nM.

Question: What about the melting point of the same compound?
Answer: Its melting point is 169 to 172 °C.
